For test [1], the system named is POE::Glucre β-cells. Nature of the test: Arginine and liraglutide tolerance tests. The note with it: 10-week old POE::Glucre; arginine 5 mg intravenously; lower than in younger animals. Format: in vivo, mouse.
For test [2], the system named is POE::Glucre animals. The experiment in a line: Insulin challenge (overall responsiveness to insulin). Format: in vivo, mouse. To be noted: older POE::Glucre animals; Actrapid insulin 0.75 mU/g subcutaneously. Here is the method: Note that 600 mg of glucose per dl of blood correspond to the maximal value detectable by our glucose monitoring system. […] However, due to the experimental conditions used, we noticed a disaggregating of the islets (Table 7) and therefore turned to an in vivo approach: (C) To determine the overall responsiveness to insulin, an insulin challenge was performed in animals of the indicated genotypes and ages. […] (D-F) Aiming to also assay β-cell function, we treated POE::Glucre animals of the indicated genotypes and ages with two insulin secretagogues, arginine and liraglutide (a long-acting GLP-1 analog—Novo Nordisk—Denmark).
Animals of the indicated genotypes were injected subcutaneously with Actrapid insulin (0.75 mU/g—Novo Nordisk—Denmark), intravenously with arginine (5 mg—Sigma) or subcutaneously with liraglutide (200 micrograms per kg—Novo Nordisk—Denmark). Following insulin challenge, blood glucose levels were measured as described in the main manuscript. Next to arginine challenge, at each time point, one animal per genotype was sacrificed immediately for serum insulin level determination using RIA (Linco). Lastly, in the case of liraglutide, the latter was injected 30 min prior to glucose challenge. At each time point, three animals per genotype were sacrificed immediately for serum glucose and insulin level determination.

In test [3] the test system is POE::Glucre pancreata. The experiment in a line: Real time RT-PCR of selected transcripts in pancreata of POE::Glucre mice supplemented with glucagon. It is filed as in vivo, mouse. The note with it: 6 week old POE::Glucre + glucagon for 3 weeks; WT/POE pancreata set at 100%. Here is the method: (§1) To assess the effects of glucagon on islet size, mice were injected intraperitoneally twice daily (every 12h) with 5 μg of glucagon and sacrificed after 3 weeks of treatment. For STZ-mediated diabetes induction, a freshly prepared 50 mg/ml solution in 0.1 mol/l sodium citrate, pH 4.5 was injected intraperitoneally (200 mg/kg). Lentivirus production and injection were performed as described previously (Xu et al., 2008). Lastly, BrdU was injected intraperitoneally (200 μl of 100 μl/ml) and was detected by immunohistochemistry (Invitrogen).
RNA isolation (RNAeasy, Qiagen) and cDNA synthesis (Supercript choice system, Invitrogen) were performed according to the manufacturer's instructions. cDNA synthesis for analyses aiming to detect Pax4 transcripts was performed using a mixture of eight Pax4-derived (and β-actin-derived) antisense oligonucleotides instead of the provided oligo-dT primers (FIG. 13B).
Quantitative RT-PCR were carried out using the QuantiTect SYBR Green RT-PCR Kit (Qiagen) and validated primers (Qiagen) according to the manufacturer's instructions. The PCR reactions and detection were performed on a Mastercycler® ep realplex cycler using GAPDH and HPRT1 as internal controls for normalization purposes.
The expression of the indicated genes was assayed in pancreatic tissues of POE::Glucre, POE::Glucre supplemented with glucagon, and glucagon-receptor mutant (GluR-KO) mice using age-matched tissues of WT and POE pancreata as reference (values set at 100%). POE::Glucre, but also GluR-KO pancreata display increased contents of Ngn3 and Reg3b transcripts. Additionally, an augmentation in β-cell-specific transcripts is outlined in POE::Glucre, whereas the expression of the α-cell marker genes is reduced Importantly, concomitantly with a significant decrease in Ngn3 and Reg3b transcript contents, a reduction in insulin- and glucagon-producing cell numbers (and associated marker genes) is evidenced in POE::Glucre animals supplemented with glucagon. All values are statistically significant (P<0.05, n>2) versus POE/WT.

Test [4] has as its system POE::Glucre pancreata. Nature of the test: Immunohistochemical cell counts and islet size in pancreata of mice supplemented with glucagon. It is filed as in vivo, mouse. Here is the method: We therefore hypothesized that the latter might be driven by the hypoglucagonemia resulting from the α- to β-cell conversion. To test this theory, we injected 3-week-old POE::Pdx1Cre, POE::Glucre, POE::Pax6cre, and control animals twice daily with glucagon during three weeks.
as §1
Tissues were fixed in 4% PFA overnight at 4° C., embedded in paraffin and 8-μm sections applied to slides. These sections were assayed as described previously (Collombat et al. 2003). In order to perform co-immunofluorescence, the GFP signal was bleached when necessary, as described (Collombat et al., 2007). The primary antibodies used were the following: mouse monoclonal anti-insulin, anti-glucagon ( 1/1000 —Sigma), anti-Ngn3 ( 1/2000—1F25A1B3, BCBC Antibody Core), anti-c-Myc ( 1/100 —Abcam); guinea pig anti-insulin, anti-glucagon ( 1/1000—Sigma); rabbit anti-somatostatin ( 1/600—Dako), anti-PP ( 1/200—Dako), anti-Nkx6.1 ( 1/3000), anti-Nkx2.2 ( 1/1000—kindly provided by T. Jessell), anti-Pax6 ( 1/500 Chemicon), anti-Pax4 ( 1/500), and anti-Arx ( 1/1000); chicken anti-β-galactosidase ( 1/500 Biozol); goat anti-Ngn3 ( 1/1000—kindly provided by M. Sander). The secondary antibodies ( 1/1000—Molecular Probes) used were: 594-alexa anti-mouse; 488-alexa anti-mouse; 594-alexa anti-rabbit; 488-alexa anti-rabbit; 594-alexa anti-guinea pig; 488-alexa anti-guinea pig. Pictures were processed using confocal microscopy. For quantification purpose, stained cells were counted manually on every tenth section and the count reported to the pancreatic area estimated in silico.
The counts in cells positive for the indicated genes are reported per square centimetre of pancreatic tissues of POE::Glucre, POE::Glucre supplemented with glucagon, and glucagon-receptor mutant (GluR-KO) mice using age-matched tissues of WT/POE pancreata as reference. It is worth noticing that, in animals ectopically expressing Pax4 in glucagon expression domains or in GluR-KO mice, Ngn3-producing cells reemerge (note for the latter that due to the bias introduced by the high background, this count should be considered as indicative). […] In the latter case, a concomitant decrease in BrdU-labelled proliferating cell numbers is highlighted (BrdU provided at 5 weeks of age, examination a week later). (n>2, **P<0.01, *P<0.05 using the POE/WT genotype as reference; ^##P<0.01, ^#P<0.05 using the POE::Glucre genotype as reference).

In test [5] the test system is isolated islets. Nature of the test: Perifusion analysis of isolated islets (insulin release). It is filed as cell-based, mouse. To be noted: 20 mM glucose + glucagon. From the text:
[…] (2003). […] Obviously, a decrease in digestion time/collagenase concentrations would not have permitted proper islet isolation. We anyway perifused the islets and observed no difference in islet function of younger animals for all the genotypes analyzed. However, in older counterparts, we did detect a decrease in the glucose-stimulated insulin release, albeit not significant. It should be noticed that such a lack of significance might be attributed to the loss of oversized islets induced by experimental conditions.

Test [6] concerns β-cells. Nature of the test: STZ-mediated diabetes induction (β-cell depletion). To be noted: mice, STZ 200 mg/kg intraperitoneally, single dose. It is filed as in vivo, mouse. From the text: We reasoned that such cells might be capable of replacing lost β-cells in diabetic mice. […] A higher mortality rate was found among animals older than 4 weeks, as compared to younger mice. It should be noticed that these animals were already hyperglycemic and weakened prior to STZ injection due to a combined insulin insensitivity and β-cell failure to optimally respond to a glucose challenge (FIG. 24). […] Ten days post-injection, only few insulin-producing cells were detected (FIG. 7F-G). […]
We reasoned that the continuous β-cell neogenesis observed in double-transgenic animals might be able to rescue experimentally-induced diabetes. Therefore, the function of the newly formed β-cells was assessed in diabetic mice with more than 95% β-cell loss following STZ treatment. […] Also under these conditions, clusters of glucagon^+ cells were detected at one pole of the islets, adjacent to duct structures, such cells subsequently adopting a β-cell phenotype.
To assess the effects of glucagon on islet size, mice were injected intraperitoneally twice daily (every 12h) with 5 μg of glucagon and sacrificed after 3 weeks of treatment. […] Lastly, BrdU was injected intraperitoneally (200 μl of 100 μl/ml) and was detected by immunohistochemistry (Invitrogen).

Where [7] appears, read: 6 week old POE::Glucre + glucagon.

Marks after values point to notes of the source that are not given here.

Consider four compounds from patent US20150204850A1, “PRODUCTION OF BETA-CELLS” (Max-Planck-Gesellschaft zur Förderung der. Wissenschaften …, priority 2009, published 2015).

For `N=C(N)NCCC[C@H](N)C(=O)O` [arginine], in test [1], the “Insulin secretion after arginine challenge” value is “able to elicit an insulin secretion”.

For “insulin: Actrapid insulin, Novo Nordisk, Denmark”, the “Glycemia after insulin challenge” value in test [2] is reported as “did not observe any significant modification of the glycemia”.

In the case of glucagon, in test [3], the “Arx transcript (real time RT-PCR)” value was determined as 15 ± 10%, the “Glucagon transcript (real time RT-PCR)” value is 18 ± 9%, the “Insulin transcript (real time RT-PCR)” value is 285 ± 52% and the “Ngn3 transcript (real time RT-PCR)” value came to 475 ± 81%. For the same compound, in test [3], the “Nkx6.1 transcript (real time RT-PCR)” value is recorded as 183 ± 20%, the “Pax4 transcript (real time RT-PCR)” value amounted to 555 ± 91%, the “Pdx1 transcript (real time RT-PCR)” value is 279 ± 62% and the “Reg3b transcript (real time RT-PCR)” value is 434 ± 63%. For the same compound, in test [4] (3-week-old POE::Pdx1Cre, POE::Glucre, POE::Pax6cre mice injected twice daily with glucagon during three weeks, vs controls), the Islet size result is on record as “significant decrease in islet size”. In test [4] (setting [7]), the Glucagon-positive cell count is 6 ± 4**^# per square centimetre and the Insulin-positive cell count is given as 394 ± 132**^## per square centimetre. Further, the “BrdU (1 week) labelled cell count” value in test [4] (6 week old POE::Glucre + glucagon, BrdU at 5 weeks of age, examination a week later) is recorded as 28 ± 7^# per square centimetre. Further, in test [4] (6 week old POE::Glucre + glucagon, count indicative (high background)), the Ngn3-positive cell count is 38 ± 11^# per square centimetre. Moreover, the “% of insulin released reported to the total insulin cell content/2 h” value (“% of insulin released reported” for short) in test [5] (3-week old Control islets) is given as 8.9 ± 1.1%. Further, in test [5] (3-week old POE::Glucre islets), the “% of insulin released reported” value came out at 10.6%. In addition, the “% of insulin released reported” value in test [5] (12-week old Control islets) is 9.5 ± 0.8%. Moreover, the “% of insulin released reported” value in test [5] (12-week old POE::Glucre islets) is 6.6 ± 1.2%.

For `CN(N=O)C(=O)N[C@H]1C(O)O[C@H](CO)[C@@H](O)[C@@H]1O` (mixture of isomers) [STZ, streptozotocin], the “β-cell loss following STZ treatment” value in test [6] is “more than 95%”.
